# Assay results from patent publication US20170074857A1, “MEDICATION ADHERENCE MONITORING DEVICE” (UNIVERSITY OF FLORIDA RESEARCH FOUNDATION, INC., priority 2014, published 2017).
# Legend:
# [1] = Example 4b: breath acetone and 2-butanone by Type 1 mGC after soft gel with 2-butanol and isopropyl alcohol; assay type: in vivo, human; conditions: 2-butanol (40 mg) and isopropyl alcohol (30 mg)
# Description: Shown in Panel A of FIG. 76 is the 1st derivative mGC response (proportional to EDIM breath concentration) in a Type 1 SMART Device for acetone and 2-butanone as a function of breath sampling times post ingestion of the capsule.
# Panel B depicts the change from baseline of the 1st derivative mGC response. Time 0 is baseline (immediately before capsule is ingested containing the two AEMs). […] Note how the 2-butanone levels in breath begin to fall after 20 min, whereas those of acetone slowly continue to rise over the study period.
# [2] = cited from earlier work
structure (smiles),measurement,setting,value
"CCC(C)=O [Formulation 2-butanone, 2-butanone]",half life in breath,[1],about 45 minutes
same,Tmax of breath marker,[1]; fasting subject,20 min
same,blood elimination t1/2,[2]; in vivo,49 to 96 min
same,pulmonary uptake from air,"[2]; inhalation exposure 100,000-200,000 ppb",70%
